Experimental data published in PMC8008393, “Preclinical Lead Optimization of a 1,2,4-Triazole Based Tankyrase Inhibitor” (Journal of Medicinal Chemistry, 2020).
Converted amounts (≈) assume the structure as drawn. Where two headings read alike, the source gives them in different places.

Assays:
kinetic solubility assay = format: physicochemical; details: for solubility: Table 2
Method: (§1) Kinetic solubility assay was performed following standard protocols of Mercachem. The following assays were performed according to the standard protocols of Cyprotex: Caco-2 permeability, dog microsomal stability, hepatocyte stability (human, mouse, dog, rat, and cynomolgus), CYP3A4 inhibition, mouse plasma stability, mouse plasma protein binding, and Ames test.

[1] = system: WNT/β-catenin signaling pathway reporter in HEK293 cells; experiment: cells; format: cell-based, human; details: for IC50: Homo sapiens, HEK293, read-out: HEK293 IC50, WNT/β-catenin reporter; for activity in words: assay not given (TNKS2 / HEK293), Supplementary Table 1
Method: (§2) In the first round of the optimization campaign, we prepared single-point modifications changing any of the four regions in 1 (Figure 1) while leaving the other regions constant. In the following stages of the optimization campaign, additional East, West, and South moieties were also utilized, combining the best structural elements of the first single-point modification round. For the optimization, in vitro ADME properties and solubility of selected compounds were measured.

TNKS2 = target: T1, TNKS2 (Homo sapiens, UniProt Q9H2K2); format: biochemical
T1 construct: TNKS2 (residues 873–1162); made in house
T1 sequence (Q9H2K2 873-1162): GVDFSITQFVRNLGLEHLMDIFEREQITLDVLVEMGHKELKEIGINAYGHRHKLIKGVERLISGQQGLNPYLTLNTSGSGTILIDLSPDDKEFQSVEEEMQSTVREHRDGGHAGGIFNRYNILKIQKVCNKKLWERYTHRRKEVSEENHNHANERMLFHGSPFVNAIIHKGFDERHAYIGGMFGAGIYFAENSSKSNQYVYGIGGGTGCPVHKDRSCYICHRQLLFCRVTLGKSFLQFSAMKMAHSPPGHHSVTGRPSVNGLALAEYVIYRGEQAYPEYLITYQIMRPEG
Method: as §2
Human tankyrase active constructs for TNKS1 (residues 1030–1317) and TNKS2 (residues 873–1162) and other ARTD/PARP enzymes used in the assays were expressed and purified as previously described.[34],[35] The enzymatic assay is based on the measurement of unreacted NAD^+, which is chemically converted into a fluorescent compound.[36] The fluorescence intensity was measured with excitation/emission wavelengths of 372 and 444 nm, respectively, using Tecan Infinity M1000 Pro. The compounds were prepared in half log dilution series and the reactions were done in quadruplicates with protein and compound controls to exclude the effect of compound autofluorescence. All reactions were done at ambient temperature. 20 nM TNKS1 or 5 nM TNKS2 was incubated for 20 h in assay buffer (50 mM BTP, pH 7.0, 0.5 mM TCEP, 0.01% Triton-X100) with compound and 10 μM or 500 nM NAD^+, respectively. […] For ARTD3/PARP3, 20 nM enzyme was incubated for 4 h with compound and 500 nM NAD^+ in assay buffer (50 mM PIPES, pH 7.0, 5 mM MgCl2, 20 μg/mL activated DNA, 0.2 mg/mL BSA). The assay conditions for the other ARTD enzymes were used as previously described.[37]

Caco-2 permeability = format: in vitro ADME; details: human
Method: as §1

[2] = microsomal stability, mouse liver microsomes; format: in vitro ADME; details: for half-life at 1 μM: pH 7.4, read-out: Microsomal stability t1/2 mouse
Method: (§3) Test compounds in DMSO (10 mM) were further diluted to 100 μM in acetonitrile. Human or mouse liver microsomes (BioIVT) from selected species are incubated in duplicate with the test compound at a final concentration of 1 μM in 0.1 M potassium phosphate buffer (pH 7.4) containing 3.3 mM MgCl2, 0.5 mg/mL microsomal protein, in the presence or absence of NADPH (1 mM). Incubations were performed at 37 °C in a total volume of 500 μL. Control incubations with reference substances were included for each experiment. At t = 0, 5, 15, 30, 45 min, an amount of 50 μL of the incubation mixture was transferred to a quench plate containing acetonitrile and internal standard (200 nM labetalol) cooled at 4 °C. After the last time point, the quench plates are mixed thoroughly and centrifuged for 15 min at 3700 rpm and 10 °C (Eppendorf 5804R). The supernatant was transferred to a 96-well plate and analyzed by LCMS (Vanquish Horizon UHPLC equipped with a diode array detector coupled to a Q Exactive focus hybrid quadrupole-Orbitrap mass spectrometer). The metabolic stability is evaluated by plotting the natural logarithm of the percentage test compound remaining versus time and performing linear regression.

[3] = microsomal stability, human liver microsomes; format: in vitro ADME; details: for half-life at 1 μM: pH 7.4, read-out: Microsomal stability t1/2 human
Method: as §3

[4] = hepatocyte stability, human; format: in vitro ADME; details: hepatocytes
Method: as §1

CYP3A4 = target: T2, CYP3A4 (Homo sapiens, UniProt P08684); experiment: CYP3A4 inhibition; format: in vitro ADME
T2 construct: Cyprotex
T2 sequence (P08684 whole entry, species assumed): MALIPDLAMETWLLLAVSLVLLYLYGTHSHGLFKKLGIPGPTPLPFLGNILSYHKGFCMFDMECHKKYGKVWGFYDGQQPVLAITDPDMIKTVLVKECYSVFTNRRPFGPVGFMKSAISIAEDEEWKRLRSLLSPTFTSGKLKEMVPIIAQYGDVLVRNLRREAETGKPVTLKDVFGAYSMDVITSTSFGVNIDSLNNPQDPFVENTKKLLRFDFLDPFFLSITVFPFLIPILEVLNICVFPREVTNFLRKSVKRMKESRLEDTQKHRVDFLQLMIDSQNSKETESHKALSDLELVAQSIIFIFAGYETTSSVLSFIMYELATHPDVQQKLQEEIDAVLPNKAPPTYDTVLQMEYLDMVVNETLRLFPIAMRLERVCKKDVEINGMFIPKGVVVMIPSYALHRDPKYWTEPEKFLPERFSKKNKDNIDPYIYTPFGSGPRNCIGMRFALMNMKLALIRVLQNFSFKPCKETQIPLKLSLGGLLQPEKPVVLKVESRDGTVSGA
Method: as §1

in vivo = experiment: in vivo
Method: as §2
The pharmacokinetical analyses in mice were performed according to the standard protocols of Medicilon and, as previously described,[9] using 3 animals per treatment group using 5% DMSO, 50% PEG400 (both Sigma-Aldrich) and 45% saline as vehicle.

[5] = system: PARPs/ARTDs ARTD1/2/3/4/7/8/10/12; experiment: PARP/ARTD family selectivity, biochemical assays
[6] = A-B, read-out: Caco-2 permeability Papp AB
[7] = pH 7.4, read-out: Kinetic Solubility pH 7.4

`Cc1cccc(-c2nnc([C@H]3C[C@H](NC(=O)c4ccnc5cccnc45)C3)n2-c2ccccc2F)n1` [compound 30] gave a solubility (kinetic solubility assay; pH 7.4) of over 80 µM.
`Cn1c(=O)n([C@H]2C[C@H](c3nnc(-c4ccncn4)n3-c3ccccc3Cl)C2)c2ccc(C#N)cc21` [compound 17] gave an IC50 [1] of 0.116 µM and an IC50 (TNKS2) of 0.034 µM.
For `CC(=O)N[C@H]1C[C@H](c2nnc(-c3ccncn3)n2-c2ccccc2Cl)C1` [compound 54], the activity in words [1] was “inactive”.
`O=C(N[C@H]1C[C@H](c2nnc(-c3ccc(OC(F)F)cn3)n2-c2ccccc2F)C1)c1ccnc2cccnc12` [compound 34] gave a solubility (kinetic solubility assay; pH 7.4) of 14 µM (≈ 7.44 µg/mL).
For `N#Cc1ccc2c(c1)oc(=O)n2[C@H]1C[C@H](c2nnc(-c3ccncn3)n2-c2ccccc2Cl)C1` [compound 18, 3-(trans-3-(4-(2-Chlorophenyl)-5-(pyrimidin-4-yl)-4H-1,2,4-triazol-3-yl)cyclobutyl)-2-oxo-2,3-dihydrobenzo[d]oxazole-6-carbonitrile], the IC50 [1] was 0.274 µM and the IC50 (TNKS2) was 0.048 µM.
`O=C(N[C@H]1C[C@H](c2nnc(-c3ccc(OC(F)F)cn3)n2-c2ccccc2F)C1)c1ccnc2cc(F)cnc12` [compound 35] showed a solubility (kinetic solubility assay; pH 7.4) of 54 µM (≈ 29.7 µg/mL).
For `N#Cc1ccc2c(c1)[nH]c(=O)n2[C@H]1C[C@H](c2nnc(-c3ccncn3)n2-c2ccccc2C(F)(F)F)C1` [compound 66], the activity in words [1] was “comparable activities to the previous lead 1”.
Work on `N#Cc1ccc2c(c1)[nH]c(=O)n2C12CC(c3nnc(-c4ccncn4)n3-c3ccccc3Cl)(C1)C2` [compound 19, 1-(3-(4-(2-Chlorophenyl)-5-(pyrimidin-4-yl)-4H-1,2,4-triazol-3-yl)bicyclo[1.1.1]pentan-1-yl)-2-oxo-2,3-dihydro-1H-benzo[d]imidazole-5-carbonitrile] yielded an IC50 [1] of 0.0047 µM, an IC50 (TNKS2) of 0.0036 µM and an efflux ratio at 2 h, 10 µM (Caco-2 permeability) of 5.3. It also gave a Papp A→B at 2 h, 10 µM (Caco-2 permeability; [6]) of 5 ×10⁻⁶ cm/s, a microsomal CLint at 0.75 h, 1 µM ([2]; pH 7.4) of 256 µL/min/mg and a half-life at 1 μM [2] of 5 min. It also gave a microsomal CLint at 0.75 h, 1 µM ([3]; pH 7.4) of 200 µL/min/mg, a half-life at 1 μM [3] of 7 min and a solubility kinetic (kinetic solubility assay; [7]) of 1.5 µM (≈ 0.721 µg/mL).
For `N#Cc1ccc2c(c1)[nH]c(=O)n2[C@H]1C[C@@H](c2nnc(-c3ccncn3)n2-c2ccccc2Cl)C1` [compound 75], the potency in words (TNKS2) was “decreased potency”.
In the case of `O=C(N[C@H]1C[C@H](c2nnc(-c3ccncn3)n2-c2ccccc2Cl)C1)C1CCCCC1` [compound 53], the activity in words [1] is reported as “inactive”.
With `Cc1cccc(-c2nnc([C@H]3C[C@H](NC(=O)c4ccnc5cc(F)cnc45)C3)n2-c2ccccc2F)n1` [compound 31] the solubility (kinetic solubility assay; pH 7.4) was over 80 µM.
For `O=C(Cc1ccccc1)N[C@H]1C[C@H](c2nnc(-c3ccncn3)n2-c2ccccc2Cl)C1` [compound 52], the activity in words [1] was “inactive”.
Work on `N#Cc1ccc2c(c1)[nH]c(=O)n2[C@H]1C[C@H](c2nnc(-c3ccncn3)n2-c2ccccc2Cl)C1` [compound 1] yielded a hepatocyte CLint [4] of 9.8 µL/min/1e6 cells, a Papp A→B (Caco-2 permeability; [6]) of 10 ×10⁻⁶ cm/s and a microsomal CLint at 1 μM ([2]; pH 7.4) of 204 µL/min/mg. The half-life at 1 μM [2] was 7 min, the IC50 (CYP3A4) was 1.26 µM and the microsomal CLint at 1 μM ([3]; pH 7.4) was 242 µL/min/mg. For the same molecule, the half-life at 1 μM [3] was 6 min, the solubility kinetic (kinetic solubility assay; PBS, pH = 7) was 12 µM (≈ 5.63 µg/mL) and the solubility kinetic (kinetic solubility assay; [7]) was 12 µM (≈ 5.63 µg/mL). For the same molecule, the CL (in vivo; mouse po 5 mg/kg) was 567 mL/min/kg, the Vd (in vivo; mouse po 5 mg/kg) was 74.2 L/kg and the T1/2 (in vivo; mouse po 5 mg/kg, 5 mg/kg) was 90 min. The AUC(0-inf) (in vivo; mouse, in vivo, po, 5 mg/kg) was 147 ng·h/mL, the AUC(0-t) (in vivo; mouse, in vivo, po, 5 mg/kg) was 145 ng·h/mL and the Cmax (in vivo; mouse, in vivo, po, 5 mg/kg) was 124 ng/mL. For the same molecule, the MRT inf (in vivo; mouse, in vivo, po, 5 mg/kg) was 96.6 min, the Tmax (in vivo; mouse, in vivo, po, 5 mg/kg) was 15 min and the bioavailability (in vivo; mouse, in vivo, po, 5 mg/kg) was 47%. It also gave a half-life (in vivo; mouse, in vivo, po, 5 mg/kg, T1/2, mouse po 5 mg/kg) of 90.6 min and an IC50 [5] of over 10 µM.
In the case of “3-(trans-3-(4-(2-Chlorophenyl)-5-(pyrimidin-4-yl)-4H-1,2,4-triazol-3-yl)cyclobutyl)isoindolin-1-one [compound 51]”, the activity in words [1] is reported as “activity was restored”.
With `O=C(N[C@H]1C[C@H](c2nnc(-c3ccccn3)n2-c2ccccc2F)C1)c1ccnc2cccnc12` [compound 26] the solubility (kinetic solubility assay; pH 7.4) was over 80 µM.
With `CN(C(=O)c1ccccn1)[C@H]1C[C@H](c2nnc(-c3ccncn3)n2-c2ccccc2Cl)C1` [compound 44] the activity in words [1] was “inactive”.
